{"source": "ChEMBL document CHEMBL1150051", "about": "“Antiviral (RNA) activity of selected Amaryllidaceae isoquinoline constituents and synthesis of related substances” (J Nat Prod, 1992)", "key": {"Mus musculus [1]": {"tested_on": "Mus musculus", "experiment": "Toxicity in C57BL/6 mouse assessed as change in body weight at 8 mg/kg/day, ip twice daily for 9 days administered 1 day before infection measured after 28 days post infection", "type": "organism-based", "set-up": "route intraperitoneal", "settings": "in vivo, 672 h"}, "Mus musculus [2]": {"tested_on": "Mus musculus", "experiment": "Toxicity in C57BL/6 mouse assessed as change in body weight at 5 mg/kg/day, ip twice daily for 9 days administered 1 day before infection measured after 28 days post infection", "type": "organism-based", "set-up": "route intraperitoneal", "settings": "in vivo, 672 h"}, "[3]": {"experiment": "Therapeutic index, ratio of TC50 for african green monkey Vero cells to IC50 for Yellow fever virus Ashibi", "type": "cell-based", "settings": "read-out: TI"}, "[4]": {"tested_on": "Japanese encephalitis virus", "experiment": "Antiviral activity against Japanese encephalitis virus Beijing infected in low viral dose challenge C57BL/6 mouse model assessed as inhibition of virus-induced mortality at 4 mg/kg/day, sc once daily for 7 days administered 1 day before infection measured after 28 days post infection", "type": "functional, organism-based"}, "[5]": {"experiment": "Therapeutic index, ratio of TC50 for african green monkey Vero cells to IC50 for Japanese encephalitis virus Nakayama", "type": "cell-based", "settings": "read-out: TI"}, "dengue virus type 4": {"tested_on": "dengue virus type 4", "experiment": "Antiviral activity against Dengue virus type 4 infected in african green monkey Vero cells after 6 days by plaque reduction assay", "type": "functional, organism-based", "settings": "Dengue virus, Vero, 144 h; read-out: IC50"}, "Mus musculus [6]": {"tested_on": "Mus musculus", "experiment": "Toxicity in C57BL/6 mouse assessed as mortality at 4 mg/kg/day, sc once daily for 7 days", "type": "organism-based", "set-up": "route subcutaneous", "settings": "in vivo, 168 h"}, "Mus musculus [7]": {"tested_on": "Mus musculus", "experiment": "Toxicity in C57BL/6 mouse assessed as mortality at 6 mg/kg/day, sc once daily for 7 days", "type": "organism-based", "set-up": "route subcutaneous", "settings": "in vivo, 168 h"}, "[8]": {"tested_on": "Japanese encephalitis virus", "experiment": "Antiviral activity against Japanese encephalitis virus Beijing infected in low viral dose challenge C57BL/6 mouse model assessed as average day of death at 2 mg/kg/day, sc once daily for 7 days administered 1 day before infection measured after 28 days post infection", "type": "functional", "settings": "route subcutaneous"}, "Mus musculus [9]": {"tested_on": "Mus musculus", "experiment": "Toxicity in C57BL/6 mouse assessed as change in body weight at 2 mg/kg/day, ip twice daily for 9 days administered 1 day before infection measured after 28 days post infection", "type": "organism-based", "set-up": "route intraperitoneal", "settings": "in vivo, 672 h"}, "[10]": {"tested_on": "Japanese encephalitis virus", "experiment": "Antiviral activity against Japanese encephalitis virus Beijing infected in high viral dose challenge C57BL/6 mouse model assessed as average day of death at 8 mg/kg/day, ip twice daily for 9 days administered 1 day before infection measured after 28 days post infection", "type": "functional", "settings": "route intraperitoneal"}, "Mus musculus [11]": {"tested_on": "Mus musculus", "experiment": "Toxicity in C57BL/6 mouse assessed as change in body weight at 4 mg/kg/day, ip twice daily for 9 days administered 1 day before infection measured after 28 days post infection", "type": "organism-based", "set-up": "route intraperitoneal", "settings": "in vivo, 672 h"}, "Punta Toro virus": {"tested_on": "Punta Toro virus", "experiment": "Antiviral activity against Punta Toro virus Adames infected in african green monkey Vero cells assessed as inhibition of virus-induced cytopathic effect by MTT assay", "type": "functional, organism-based"}, "[12]": {"tested_on": "Japanese encephalitis virus", "experiment": "Antiviral activity against Japanese encephalitis virus Beijing infected in high viral dose challenge C57BL/6 mouse model assessed as average day of death at 5 mg/kg/day, ip twice daily for 9 days administered 1 day before infection measured after 28 days post infection", "type": "functional", "settings": "route intraperitoneal"}, "[13]": {"tested_on": "Sandfly fever Sicilian virus", "experiment": "Antiviral activity against Sandfly fever sicilian virus infected in african green monkey Vero cells assessed as inhibition of virus-induced cytopathic effect by MTT assay", "type": "functional, organism-based", "settings": "vero"}, "[14]": {"tested_on": "Japanese encephalitis virus", "experiment": "Antiviral activity against Japanese encephalitis virus Beijing infected in high viral dose challenge C57BL/6 mouse model assessed as average day of death at 4 mg/kg/day, ip twice daily for 9 days administered 1 day before infection measured after 28 days post infection", "type": "functional", "settings": "route intraperitoneal"}, "[15]": {"experiment": "Therapeutic index, ratio of TC50 for african green monkey Vero cells to IC50 for Dengue type 4 virus", "type": "cell-based", "settings": "read-out: TI"}, "[16]": {"tested_on": "Japanese encephalitis virus", "experiment": "Antiviral activity against Japanese encephalitis virus Nakayama infected in african green monkey Vero cells assessed as inhibition of virus-induced cytopathic effect by MTT assay", "type": "functional, organism-based", "settings": "Japanese encephalitis virus, Nakayama, Vero; read-out: IC50"}, "[17]": {"tested_on": "Japanese encephalitis virus", "experiment": "Antiviral activity against Japanese encephalitis virus Beijing infected in high viral dose challenge C57BL/6 mouse model assessed as survival rate at 6 mg/kg/day, ip twice daily for 9 days administered 1 day before infection measured after 28 days post infection relative to control", "type": "functional", "settings": "route intraperitoneal"}, "[18]": {"tested_on": "Japanese encephalitis virus", "experiment": "Antiviral activity against Japanese encephalitis virus Beijing infected in low viral dose challenge C57BL/6 mouse model assessed as survival rate at 4 mg/kg/day, sc once daily for 7 days administered 1 day before infection measured after 28 days post infection relative to control", "type": "functional", "settings": "route subcutaneous"}, "Mus musculus [19]": {"tested_on": "Mus musculus", "experiment": "Toxicity in C57BL/6 mouse assessed as mortality at 2 mg/kg/day, sc once daily for 7 days", "type": "organism-based", "set-up": "route subcutaneous", "settings": "in vivo, 168 h"}, "Mus musculus [20]": {"tested_on": "Mus musculus", "experiment": "Toxicity in C57BL/6 mouse assessed as change in body weight at 3 mg/kg/day, ip twice daily for 9 days administered 1 day before infection measured after 28 days post infection", "type": "organism-based", "set-up": "route intraperitoneal", "settings": "in vivo, 672 h"}, "Mus musculus [21]": {"tested_on": "Mus musculus", "experiment": "Toxicity in C57BL/6 mouse assessed as change in body weight at 6 mg/kg/day, ip twice daily for 9 days administered 1 day before infection measured after 28 days post infection", "type": "organism-based", "set-up": "route intraperitoneal", "settings": "in vivo, 672 h"}, "[22]": {"tested_on": "Japanese encephalitis virus", "experiment": "Antiviral activity against Japanese encephalitis virus Beijing infected in high viral dose challenge C57BL/6 mouse model assessed inhibition of virus-induced mortality at 4 mg/kg/day, ip twice daily for 9 days administered 1 day before infection measured after 28 days post infection", "type": "functional, organism-based"}, "[23]": {"tested_on": "Japanese encephalitis virus", "experiment": "Antiviral activity against Japanese encephalitis virus Beijing infected in low viral dose challenge C57BL/6 mouse model assessed as survival rate at 6 mg/kg/day, sc once daily for 7 days administered 1 day before infection measured after 28 days post infection relative to control", "type": "functional", "settings": "route subcutaneous"}, "[24]": {"experiment": "Therapeutic index, ratio of TC50 for african green monkey Vero cells to IC50 for Rift valley fever virus", "type": "cell-based", "settings": "read-out: TI"}, "[25]": {"tested_on": "Japanese encephalitis virus", "experiment": "Antiviral activity against Japanese encephalitis virus Beijing infected in low viral dose challenge C57BL/6 mouse model assessed as average day of death at 6 mg/kg/day, sc once daily for 7 days administered 1 day before infection measured after 28 days post infection", "type": "functional", "settings": "route subcutaneous"}, "Mus musculus [26]": {"tested_on": "Mus musculus", "experiment": "Toxicity in C57BL/6 mouse assessed as mortality at 4 mg/kg/day, ip twice daily for 9 days", "type": "organism-based", "set-up": "route intraperitoneal", "settings": "in vivo, 216 h"}, "[27]": {"tested_on": "Japanese encephalitis virus", "experiment": "Antiviral activity against Japanese encephalitis virus Beijing infected in high viral dose challenge C57BL/6 mouse model assessed as average day of death at 3 mg/kg/day, ip twice daily for 9 days administered 1 day before infection measured after 28 days post infection", "type": "functional", "settings": "route intraperitoneal"}, "Yellow fever virus": {"tested_on": "Yellow fever virus", "experiment": "Antiviral activity against Yellow fever virus Ashibi infected in african green monkey Vero cells assessed as inhibition of virus-induced cytopathic effect by MTT assay", "type": "functional, organism-based", "settings": "Yellow fever virus, Ashibi, Vero; read-out: IC50"}, "[28]": {"tested_on": "Japanese encephalitis virus", "experiment": "Antiviral activity against Japanese encephalitis virus Beijing infected in high viral dose challenge C57BL/6 mouse model assessed as average day of death at 6 mg/kg/day, ip twice daily for 9 days administered 1 day before infection measured after 28 days post infection", "type": "functional", "settings": "route intraperitoneal"}, "Mus musculus [29]": {"tested_on": "Mus musculus", "experiment": "Toxicity in C57BL/6 mouse assessed as mortality at 3 mg/kg/day, ip twice daily for 9 days", "type": "organism-based", "set-up": "route intraperitoneal", "settings": "in vivo, 216 h"}, "[30]": {"tested_on": "Japanese encephalitis virus", "experiment": "Antiviral activity against Japanese encephalitis virus Beijing infected in high viral dose challenge C57BL/6 mouse model assessed as average day of death at 2 mg/kg/day, ip twice daily for 9 days administered 1 day before infection measured after 28 days post infection", "type": "functional", "settings": "route intraperitoneal"}, "[31]": {"tested_on": "Japanese encephalitis virus", "experiment": "Antiviral activity against Japanese encephalitis virus Beijing infected in low viral dose challenge C57BL/6 mouse model assessed as average day of death at 4 mg/kg/day, sc once daily for 7 days administered 1 day before infection measured after 28 days post infection", "type": "functional", "settings": "route subcutaneous"}, "Rift Valley fever virus": {"tested_on": "Rift Valley fever virus", "experiment": "Antiviral activity against Rift Valley fever virus infected in african green monkey Vero cells after 6 days by plaque reduction assay", "type": "functional, organism-based", "settings": "Rift Valley fever virus, Vero, 144 h; read-out: IC50"}, "Mus musculus [32]": {"tested_on": "Mus musculus", "experiment": "Toxicity in C57BL/6 mouse assessed as average day of death at 6 mg/kg/day, sc once daily for 7 days", "type": "organism-based", "set-up": "route subcutaneous", "settings": "in vivo, 168 h"}, "Mus musculus [33]": {"tested_on": "Mus musculus", "experiment": "Toxicity in C57BL/6 mouse assessed as mortality at 2 mg/kg/day, ip twice daily for 9 days", "type": "organism-based", "set-up": "route intraperitoneal", "settings": "in vivo, 216 h"}}, "note": "Activity calls are given as the source filed them. The rule behind the calls is not given here."}
{"compound": "O=C1N[C@H]2[C@H](O)[C@H](O)[C@@H](O)[C@H](O)[C@@H]2c2cc3c(c(O)c21)OCO3", "note": "[PANCRATISTATIN]", "values": [{"measurement": "Activity", "setting": "Mus musculus [1]", "result": 1.5}, {"measurement": "Activity", "setting": "Mus musculus [2]", "result": 1.4}, {"measurement": "selectivity ratio", "setting": "[3]", "result": 4.9}, {"measurement": "Activity", "setting": "[4]", "result": "Active"}, {"measurement": "selectivity ratio", "setting": "[5]", "result": 4.2}, {"measurement": "IC50", "setting": "dengue virus type 4", "result": 0.063, "unit": "µg/mL"}, {"measurement": "Activity", "setting": "Mus musculus [6]", "result": "Not Active"}, {"measurement": "Activity", "setting": "Mus musculus [7]", "result": "Non-toxic"}, {"measurement": "Activity", "setting": "[8]", "result": 16.3, "unit": "days"}, {"measurement": "Activity", "setting": "Mus musculus [9]", "result": 2.8}, {"measurement": "Activity", "setting": "[10]", "result": 12.9, "unit": "days"}, {"measurement": "Activity", "setting": "Mus musculus [11]", "result": 1.8}, {"measurement": "inhibition (INH)", "setting": "Punta Toro virus", "result": 25, "unit": "%"}, {"measurement": "Activity", "setting": "[12]", "result": 10.4, "unit": "days"}, {"measurement": "IC50", "setting": "[13]", "result": "Not Active"}, {"measurement": "Activity", "setting": "[14]", "result": 12.3, "unit": "days"}, {"measurement": "selectivity ratio", "setting": "[15]", "result": 8}, {"measurement": "IC50", "setting": "[16]", "result": 0.022, "unit": "µg/mL"}, {"measurement": "Activity", "setting": "[17]", "result": 50, "unit": "%"}, {"measurement": "Activity", "setting": "[18]", "result": 30, "unit": "%"}, {"measurement": "Activity", "setting": "Mus musculus [19]", "result": "Non-toxic"}, {"measurement": "Activity", "setting": "Mus musculus [20]", "result": 2.1}, {"measurement": "Activity", "setting": "Mus musculus [21]", "result": 1.3}, {"measurement": "Activity", "setting": "[22]", "result": "inactive"}, {"measurement": "Activity", "setting": "[23]", "result": 90, "unit": "%"}, {"measurement": "selectivity ratio", "setting": "[24]", "result": 3.1}, {"measurement": "Activity", "setting": "[25]", "result": 15, "unit": "days"}, {"measurement": "Activity", "setting": "Mus musculus [26]", "result": "Non-toxic"}, {"measurement": "Activity", "setting": "[27]", "result": 12.6, "unit": "days"}, {"measurement": "IC50", "setting": "Yellow fever virus", "result": 0.016, "unit": "µg/mL"}, {"measurement": "Activity", "setting": "[28]", "result": 11.8, "unit": "days"}, {"measurement": "Activity", "setting": "Mus musculus [29]", "result": "Non-toxic"}, {"measurement": "Activity", "setting": "[30]", "result": 12.6, "unit": "days"}, {"measurement": "Activity", "setting": "[31]", "result": 15.4, "unit": "days"}, {"measurement": "IC50", "setting": "Rift Valley fever virus", "result": 0.16, "unit": "µg/mL"}, {"measurement": "AD50", "setting": "Mus musculus [32]", "result": 2.7, "unit": "days"}, {"measurement": "Activity", "setting": "Mus musculus [33]", "result": "Non-toxic"}]}
